From patent publication US20140309295A1, “ANTIEPILEPTIC, HYPOCHOLESTEROLEMIC AND NEUROPROTECTIVE COMPOUND” (NEURON BIOPHARMA, S.A., priority 2009, published 2014)

Assays:
[1] = system: SK-N-MC (human neuroblastoma) line; test: Total cholesterol levels in neuronal cell line; assay type: cell-based; conditions: acid compounds, 20 hours, absence of FBS
Method: To carry out this assay, the compounds were activated with NaOH until the lactone form was completely opened.
Both the Hep G2 (human hepatocarcinoma) line and the SK-N-MC (human neuroblastoma) line were obtained from the American Type Culture Collection (ATCC no. HB-8065 and HTB-10 respectively). In all cases strict rules of sterility were followed and the manipulation was performed in class II biological safety cabinets following European standard EN 12469. The cells maintained in passage were seeded in 96-well plates in MEM supplemented with 10% FBS, 2 mM L-glutamine, 1 mM sodium pyruvate, 0.1 mM non-essential amino acids and 0.05 mg/mL gentamicin. In the case of HepG2, 4×10^4 cells/well were seeded and in the case of SK-N-MC 5×10^4 cells/well were seeded. After 24 hours had elapsed from the seeding, the cells were deprived of FBS for 8 hours. The cells were then incubated with the treatments at various concentrations for 20 hours. After the incubation period, the cells were washed with PBS and lysed with a phosphate buffer with 0.5% Triton X-100. […]
The total cholesterol was quantified by means of enzymatic and fluorometric techniques. […] The fluorescence intensity was determined at 530 nm of excitation and 580 nm of emission by means of a fluorometer. The results were normalized by protein, which was determined by means of the BCA technique.

[2] = system: FVB/NHan mice inoculated with kainate (KA); test: Neuropathological signs in hippocampus after kainate (MAP2, HNE, T.U.N.E.L., GFAP); assay type: in vivo; conditions: for neuritic dystrophy (MAP2 labeling) in hippocampus: 50 mg/kg i.p., 7 days
Method: (§1) All the animals included for the experimental process were 12-week old males of the FVB/NHan strain. The experiments were conducted strictly following the Guidance on the Operation of Animals (Scientific Procedures, Act. 1986). The animals had their respective quarantine period and were treated with maximum precaution to minimize possible contaminations during inoculations and handling.
Twenty-five animals were used in this assay and the treatments were all conducted by intraperitoneal (i.p.) route with a volume of 100 μl, according to the following regimens: • i) PBS+PBS+PBS regimen: 4 animals were initially treated with PBS with a daily dose for 2 days, on the second day the animals were inoculated with a new dose of PBS and for the next 7 days with a daily dose of PBS. • ii) NST0037+KA+NST0037 regimen: 7 animals were initially treated with a daily dose for 2 days with NST0037 at 50 mg/kg, on the second day the animals were inoculated with a dose of kainate at 25 mg/Kg and for the next 7 days with a daily dose of NST0037 at 50 mg/kg. • iii) PBS+KA+PBS regimen: 7 animals were initially treated with PBS with a daily dose for 2 days, on the second day the animals were inoculated with a dose of kainate at 25 mg/Kg and for the next 7 days with a daily dose of PBS. • iv) PBS+KA+NST0037 regimen: 7 animals were initially treated with PBS with a daily dose for 2 days, on the second day the animals were inoculated with a dose of kainate at 25 mg/Kg and for the next 7 days with a daily dose of NST0037 at 50 mg/kg.
(§2) Once the treatment time of 7 days ended, the animals were sacrificed and the brains were dissected. The brain samples were processed and included in paraffin. For the analysis of neuritic dystrophy in the hippocampus, bright field immunochemistry against microtubule associated protein type 2 (MAP2) was performed in 5 μm thick coronal sections.
as §2, with “oxidative damage due to lipid peroxidation” for “neuritic dystrophy”, “4-hydroxynonenal (HNE)” for “microtubule associated protein type 2 (MAP2)”
Once the treatment time of 7 days ended, the animals were sacrificed and the brains were dissected. The brain samples were processed and included in paraffin. For the analysis of the presence of neurons in apoptosis in the hippocampus, the T.U.N.E.L. (TdT-mediated dUTP nick end labeling) fluorescence technique was performed in 5 μm thick coronal sections.
Once the treatment time of 7 days ended, the animals were sacrificed and the brains were dissected. The brain samples were processed and included in paraffin. The analysis of reactive astrogliosis was performed by means of bright field immunochemistry against Glial fibrillary acidic protein (GFAP) in 5 μm thick coronal sections, which protein is present in astrocytes.

adult zebrafish = test: Single-dose toxicity assay (24 hours exposure in water) in adult zebrafish; conditions: 14 days post-treatment
Excerpt: Subsequently they were fed like the rest of the animals. • Weight of the animals: they were weighed at time 0 (before the treatment), at 7 and at 14 days post-treatment.
In this case, the weight of the animals of the different study groups at three established times: before starting the treatments (0 dpt), at day 7 post-treatment and at day 14 post-treatment, was used as a toxicity parameter. […] To that end, the fish were sacrificed at 14 days post-treatment (previously anesthetized) and the samples (whole fish) were included in paraffin. The hematoxylin-eosin staining was subsequently performed in order to conduct the histopathological studies, obtaining a minimum of 6 longitudinal sections per animal, for the purpose of collecting different study areas of the same organ. The following organs were studied: brain, kidney, pancreas, intestine, eye, gills, ovary, testicle, muscle and liver.

ApoB100 mice = test: Hypocholesterolemic effect in endogenous hyperlipidemia model, single i.p. dose; assay type: in vivo; conditions: 50 mg/kg i.p., 12 hours
Method: as §1, with “46-week” for “12-week”, “ApoB100 strain, which strain has a deficiency in removing cholesterol from the blood which causes an abnormally high increase of plasma cholesterol.” for “FVB/NHan strain.”, “for” for “during”
In order to conduct the experiment on the fasting animals, blood was extracted by ocular puncture. The plasma was obtained from said blood, in which plasma total cholesterol levels and levels of its fractions were determined prior to administration of the substances under study. Immediately after that, the animals were intraperitoneally inoculated with 50 mg/kg of each of the test compounds. Four animals were treated with the vehicle and were considered the control group. […] Finally, a third group of five mice received 50 mg/Kg of NST0037. Twelve hours after the treatments, blood was again extracted from the fasting animals and the plasma was obtained from said blood.

Structure (SMILES): CCC(CC)C(=O)O[C@H]1C[C@@H](C)C=C2C=C[C@H](C)[C@H](CC[C@@H]3C[C@@H](O)CC(=O)O3)[C@H]21 [NST0037, (1S,2S,6R,8S,8aR)-1,2,6,7,8,8a-hexahydro-3,7-dimethyl-8-[2-[(2R,4R)-tetrahydro-4-hydroxy-6-oxo-2H-pyran-2-yl]ethyl]-1-naphthalenyl-2-ethyl-butyrate]
- reduction of total cholesterol levels [1]: reductions of cholesterol with both compounds were similar
- apoptosis (T.U.N.E.L.) in hippocampus ([2]; NST0037+KA+NST0037 regimen): did not show neurons positive for T.U.N.E.L.
- oxidative damage (HNE labeling) in hippocampus ([2]; NST0037+KA+NST0037 regimen): without HNE-labeled neurons
- reactive astrogliosis (GFAP) in hippocampus ([2]; NST0037+KA+NST0037 regimen): astrocyte pattern very similar to that of the controls
- neuritic dystrophy (MAP2 labeling) in hippocampus ([2]; NST0037+KA+NST0037 regimen): without evidence of neuritic dystrophy
- apoptosis (T.U.N.E.L.) in hippocampus ([2]; PBS+KA+NST0037 regimen): reduces the number of neurons in apoptosis to a few isolated cells
- oxidative damage (HNE labeling) in hippocampus ([2]; PBS+KA+NST0037 regimen): reduces the number of HNE-labeled neurons
- reactive astrogliosis (GFAP) in hippocampus ([2]; PBS+KA+NST0037 regimen): reduces the number of astrocytes and the intensity of the GFAP labeling
- neuritic dystrophy (MAP2 labeling) in hippocampus ([2]; PBS+KA+NST0037 regimen): clearly reduces the loss of MAP2 labeling
- histopathology: intestine (adult zebrafish; 2000 mg/Kg): Atrophy signs in the intestinal villi
- histopathology: liver (adult zebrafish; 2000 mg/Kg): discrete inflammation areas
- weight of the animals (adult zebrafish; 2000 mg/kg, 24 hours exposure in water): did not modify the weight
- HDL-c levels (ApoB100 mice): without changing
- LDL-c levels (ApoB100 mice): considerably reduced
- VLDL-c levels (ApoB100 mice): considerably reduced
- esterified cholesterol (EC) levels (ApoB100 mice): reduced the EC levels in a similar manner
- free cholesterol (FC) levels (ApoB100 mice): without changing FC levels
- plasma total cholesterol levels (ApoB100 mice; male ApoB100 mice): significant hypocholesterolemic effect
